Experiment [1] concerns P. falciparum TM90C2A. In words: In vitro antimalarial activity against P. falciparum TM90C2A. The experiment is classed as cell-based, Plasmodium falciparum. The protocol:
(§1) The in vitro activities of AAQMs against P. falciparum strains W2, D6, TM91C235 and TM90C2A were evaluated using the method of Desjardins et al. as modified by Milhous et al. W2 is chloroquine resistant and mefloquine sensitive, D6 is chloroquine sensitive but naturally less susceptible to mefloquine, TM91C235 is resistant to mefloquine, chloroquine and pyrimethamine as is TM90C2A, however this latter parasite is a two pfmdr1 copy strain. We routinely run mefloquine in this screen as a control to ensure assay validity.

The test system of experiment [2] is P. falciparum D6. In words: In vitro antimalarial activity against P. falciparum D6. The experiment is classed as cell-based, Plasmodium falciparum. The protocol:
as §1
The combined effects of azithromycin (as represented by compound 196 on the horizontal axes of FIG. 4 through 6) and WR074086 (as represented by compound 14885 on vertical axes of FIGS. 4 through 6) against three strains of P. falciparum were investigated using isobologram analysis. First, the IC50s of each compound were determined as described above.

Experiment [3] deals with primary rat forebrain neurons. The experiment in a line: Neurocytotoxicity assay (MTT). As for the experimental part: The neurocytotoxicity assay of AAQMs was conducted as per Dow et al.; The antimalarial potential of 4-quinolinecarbinolamines may be limited due to neurotoxicity and cross-resistance in mefloquine-resistant Plasmodium falciparum strains; Chemother. (48) 2624-2632 (2004) and is incorporated herein, by reference. This assay utilizes primary rat forebrain neurons and is a multi-endpoint screen. […] The AAQMs outlined in Table 1 were screened at 10, 100 and 1000 μM in triplicate, and the reduction in viability observed was determined using the 3-(4,5-dimethylthiazol-2-yl)-2,5-diphenyltetrazolium bromide (MTT) assay as per Dow et al., discussed above. Approximate IC50 values were calculated on the basis of the level of inhibition observed at each concentration. Full dose response assays were run for mefloquine and WR069878 with two fold dilutions (n=6 wells per dilution) and 11 dilutions for each drug. IC50s were calculated using Prism. Each time the assay is conducted, 20 μM mefloquine is included, as a control. […] Assays are re-run if the loss of viability induced by mefloquine is <40% or >60%. Neuroprotection experiments with 6,7-dinitroquinoxaline-2,3-dione (DNQX) and magnesium were performed as per Dow et al.; Transcriptional profiling of mefloquine-induced disruption of calcium homeostasis in neurons in vitro; Genomics (86)539-550 (2005), which is incorporated by reference, herein. Neurons were exposed to DNQX (100 μM) or magnesium (12 mM) for 5 min, followed by mefloquine (25 μM) or WR069878 (250 μM) for 20 min after which reduction in cell viability was determined. […] DNQX is an inhibitor of non-N-methyl-D-aspartate (NMDA) receptors, whilst magnesium inhibits the functioning of the inositol 1,4,5-trisphosphate (IP3)-mediated calcium signaling pathway at several points. The effects of mefloquine and WR069878 on neuronal calcium homeostasis were assessed utilizing confocal microscopy as per Dow et al, as discussed in Antimicrob Agents Chemother. (48)2624-2632 (2004), cited above, and incorporated by reference, herein. Briefly neurons were loaded with calcium sensitive dye Fluo 3-A for 1 h and were washed prior to image experiments. Neurons were ‘spiked’ with 100 μM mefloquine or WR069878. Subsequent changes in neuronal calcium homeostasis were recorded as fluctuations in the emitted fluorescence of fluo-3-complexed calcium at 530 nm (excitation was 488 nm). Sequential image scans of fields containing 5-25 neurons were used to construct temporal profiles. Scans were made at 10 s intervals. Fluorescence levels for each neuron were normalized 12 to time zero values. Data were then pooled from three and five independent experiments for mefloquine and WR069878 respectively.

In experiment [4] the test system is FVO strain of P. falciparum. In words: Efficacy in P. falciparum-challenged Aotus monkeys. The experiment is classed as in vivo, Plasmodium falciparum in Aotus lemurinus lemurinus.

≈ marks a conversion by molar mass, not a printed value. Read-outs that look alike come from different tables or passages of the source.

In general, IC50 refers to the concentration that inhibits the measured activity by half. On to `CCCCN(CCCC)CC(O)c1cc(-c2ccc(Cl)cc2)nc2cc(Cl)c(C)cc12` (stereo not drawn) [WR069878], for which, in experiment [1], the “IC90 against TM90C2A” value worked out at 0.016 µg/mL (≈ 0.0348 µM). The “IC90 against D6” value in experiment [2] is 0.0053 µg/mL (≈ 0.0115 µM). The IC50 in experiment [3] (read-out: Neurotoxicity IC50, full dose response, FIG. 2(a)) was determined as 242 µM; in experiment [3] (read-out: Neurotoxicity ranking (IC50 in μM), approximate IC50 from screen at 10, 100 and 1000 μM, MTT), 200 µM. In addition, the “Outcome in Aotus” value in experiment [4] (10 mg/kg/day x7 oral, groups of two, Cure = parasite free 90 days, R = average day of recrudescence, Failure = rescued with mefloquine) is “Cures and Cure”. Moreover, the Outcome entry in experiment [4] (Aotus, oral, 10 mg/kg/day x 7 days, primary treatment) was “Cure”.

Source of the values: patent publication US20110092488A1, “Quninoline Methanol Compounds for the Treatment and Prevention of Parasitic Infections” (priority 2005, published 2011).
